Experimental data taken from patent US8003660B2, “Modulators of muscarinic receptors” (Vertex Pharmaceuticals Incorporated, priority 2006, dated 2011).
Where two headings read alike, the source gives them in different places.

What was measured:
Assay type in all cases: cell-based
[1] = molecular target: T1, M2 muscarinic receptor (Homo sapiens, UniProt P08172); assay: Functional mobilization of intracellular calcium (FLIPR) in CHO cells expressing M2; conditions: for EC50: CHO cells expressing M2, FLIPR calcium; for Emax: CHO; for M2 Activity: CHO cells expressing M2, FLIPR calcium assay
T1 construct: expressed in transfected cells; host or cells: CHO (M2-CHO)
T1 sequence (P08172 1-466): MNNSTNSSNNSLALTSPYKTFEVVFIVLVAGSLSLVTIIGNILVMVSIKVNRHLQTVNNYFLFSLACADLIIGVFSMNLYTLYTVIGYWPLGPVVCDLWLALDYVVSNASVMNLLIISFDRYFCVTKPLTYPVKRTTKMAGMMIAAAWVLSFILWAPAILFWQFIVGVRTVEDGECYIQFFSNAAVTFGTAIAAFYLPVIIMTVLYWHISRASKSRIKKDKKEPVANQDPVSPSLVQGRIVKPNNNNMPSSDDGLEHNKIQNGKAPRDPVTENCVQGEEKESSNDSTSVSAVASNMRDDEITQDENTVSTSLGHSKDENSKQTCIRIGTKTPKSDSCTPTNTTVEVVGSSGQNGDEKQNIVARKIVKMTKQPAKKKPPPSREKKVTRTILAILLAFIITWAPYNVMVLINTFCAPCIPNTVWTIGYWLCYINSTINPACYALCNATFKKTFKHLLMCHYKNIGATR
Protocol: (§1) Functional Mobilization of Intracellular Calcium to Determine Muscarinic Receptor Activity:
(§2) CHO cells expressing muscarinic receptors (M1 to M5) are grown as monolayers in tissue culture flasks at 37° C. in a humidified atmosphere containing 5% CO2 and passaged every 3-5 days. The growth media is Dulbecco's modified eagles medium (DMEM, Gibco Cat# 12430-054), containing 25 mM Hepes and supplemented with Fetal Bovine Serum (Hyclone, cat# SH30071.03), 0.1 mM of MEM non-essential amino acids (GIBCO, Cat# 11140-050), 1 mM MEM Sodium Pyruvate (GIBCO Cat# 11360-070) and 100 units/ml of Penicillin G and 100 μg/ml of Streptomycin (GIBCO Cat# 15140-122). The recombinant muscarinic receptor cell lines are grown under antibiotic pressure with media containing 25 μg/ml zeocin and 500 μg/ml G418 (M1-CHO), 4 μg/ml puromycin, 50 μg/ml zeocin and 2.5 μg/ml blasticidin (M2 and M4-CHO) or 50 μg/ml zeocin and 4 μg/ml puromycin (M3 and M5-CHO).
(§3) Cells are harvested at 80-90% confluence using Versene (GIBCO Cat# 15040-066), collected by centrifugation and seeded 18-24 hrs prior to running the calcium assay at a density of 5,000-10,000 cells/well in […], clear-bottomed 384-well plates (BD Biocoat, poly-D-lysine, Cat#356663). The day of the experiment, the cells are washed with a plate washer (Bioteck Instruments, ELX 405) using bath 1 buffer (140 mM NaCl, 4,5 mM KCl, 2 mM CaCl2, 1 mM MgCl2, 10 mM Hepes-Na, 10 mM Glucose, pH 7.4, with NaOH) containing 1 mM Probenecid. Next, the calcium dye Fluo-3 (25 μl/well of Fluo-3 AM at 4 μM, Molecular Probes F-1241, in Bath 1 buffer containing 1 mM Probenecid) is added to the 25 μl of Bath 1 remaining in each well after the plate wash and the dye is loaded at 37° C. in the tissue culture incubator for 60-90 min. The fluorescent dye is removed using the plate washer with Bath 1 containing 1 mM Probenecid, leaving 25 μl/well of this solution after the wash. Alternatively, cells can be loaded with the calcium indicator from Molecular Devices (Calcium 3 Assay Reagents, Cat #R7181) adding 5 μl of a 5× solution dye in Bath 1 containing 1 mM Probenecid (10 ml per dye flask cat#R7182 to generate a solution […]) to 20 μl of the same buffer. After loading for 60 min, the experiment can be run without having to remove the dye.
(§4) Compounds are prepared at a 2× fold concentration in a 96-well plate (round bottom, Costar Corning cat#3656), by reconstituting the pre-spotted compounds in bath 1 containing 1 mM probenecid. The final concentration DMSO is 0.5%, and the amount of DMSO is normalized across the assay plate. To determine an agonist action of the compounds on muscarinic receptors, the reconstituted compounds are added (25 μl compound/well) to the cell assay plate (containing 25 μl/well) using the multi-channel robotic system of the FLIPR 3 Instrument (Molecular Devices, Sunnyvale, Calif.). To determine a functional inhibitory action of the compounds on muscarinic receptors, the reconstituted compounds are added (25 μl compound/well) to the assay plate and pre-incubated for 15 min prior to adding 25 μl of Carbachol at 3× the EC80 for each muscarinic subtype. Alternatively, the compounds can be co-applied simultaneously with the agonist. In both assay modes, the fluorescence is recorded for 60 sec (excitation wavelength is […] and emission wavelength 540 nm) using the FLIPR 3 instrument.
(§5) The potency, efficacy and selectivity of the muscarinic compounds were evaluated by screening the compound activity across the whole family (M1 to M5 cells). Compounds were also screened for activity on other proteins such as other GPCRs and ion channels to determine selectivity on M4 receptors.

[2] = molecular target: T2, M4 muscarinic receptor (Homo sapiens, UniProt P08173); assay: Functional mobilization of intracellular calcium (FLIPR) in CHO cells expressing M4; conditions: for EC50: CHO cells expressing M4, FLIPR calcium; for Emax: CHO; for M4 Activity: CHO cells expressing M4, FLIPR calcium assay
T2 construct: expressed in transfected cells; host or cells: CHO (M4-CHO)
T2 sequence (P08173 1-479): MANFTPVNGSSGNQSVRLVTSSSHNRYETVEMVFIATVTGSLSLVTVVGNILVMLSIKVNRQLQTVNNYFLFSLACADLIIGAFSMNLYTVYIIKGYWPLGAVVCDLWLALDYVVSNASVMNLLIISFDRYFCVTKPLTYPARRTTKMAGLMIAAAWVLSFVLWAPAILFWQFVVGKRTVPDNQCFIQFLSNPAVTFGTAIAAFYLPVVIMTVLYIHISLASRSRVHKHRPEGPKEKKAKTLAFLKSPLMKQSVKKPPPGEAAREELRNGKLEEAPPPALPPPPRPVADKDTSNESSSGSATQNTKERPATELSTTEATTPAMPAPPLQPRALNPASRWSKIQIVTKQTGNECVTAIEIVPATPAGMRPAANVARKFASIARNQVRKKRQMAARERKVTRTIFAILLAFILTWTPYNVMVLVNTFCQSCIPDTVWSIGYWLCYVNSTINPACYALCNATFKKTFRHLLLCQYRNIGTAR
Protocol: as §1, §2, §3, §4, §5

[3] = molecular target: T3, M3 muscarinic receptor (Homo sapiens, UniProt P20309); assay: Functional mobilization of intracellular calcium (FLIPR) in CHO cells expressing M3; conditions: for EC50: CHO cells expressing M3, FLIPR calcium; for Emax: CHO
T3 construct: expressed in transfected cells; host or cells: CHO (M3-CHO)
T3 sequence (P20309 whole entry): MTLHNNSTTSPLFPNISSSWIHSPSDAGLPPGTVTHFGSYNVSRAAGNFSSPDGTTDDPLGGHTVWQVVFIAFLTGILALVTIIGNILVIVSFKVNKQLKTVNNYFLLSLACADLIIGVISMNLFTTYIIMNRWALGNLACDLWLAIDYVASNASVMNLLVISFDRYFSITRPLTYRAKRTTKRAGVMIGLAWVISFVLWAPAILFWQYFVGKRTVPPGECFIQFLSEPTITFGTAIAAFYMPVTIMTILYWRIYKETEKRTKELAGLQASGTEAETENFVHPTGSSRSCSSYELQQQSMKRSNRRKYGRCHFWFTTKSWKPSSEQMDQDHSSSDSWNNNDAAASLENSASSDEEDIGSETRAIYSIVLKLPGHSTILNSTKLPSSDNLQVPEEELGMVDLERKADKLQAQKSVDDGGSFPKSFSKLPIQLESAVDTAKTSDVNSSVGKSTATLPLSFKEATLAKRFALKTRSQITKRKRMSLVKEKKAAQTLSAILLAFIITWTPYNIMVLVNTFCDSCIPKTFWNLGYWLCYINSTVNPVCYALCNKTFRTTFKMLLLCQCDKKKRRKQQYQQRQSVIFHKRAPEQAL
Protocol: as §1, §2, §3, §4, §5

[4] = molecular target: T4, M1 muscarinic receptor (Homo sapiens, UniProt P11229); assay: Functional mobilization of intracellular calcium (FLIPR) in CHO cells expressing M1; conditions: for EC50: CHO cells expressing M1, FLIPR calcium; for Emax: CHO; for M1 Activity: CHO cells expressing M1, FLIPR calcium assay
T4 construct: expressed in transfected cells; host or cells: CHO (M1-CHO)
T4 sequence (P11229 1-460): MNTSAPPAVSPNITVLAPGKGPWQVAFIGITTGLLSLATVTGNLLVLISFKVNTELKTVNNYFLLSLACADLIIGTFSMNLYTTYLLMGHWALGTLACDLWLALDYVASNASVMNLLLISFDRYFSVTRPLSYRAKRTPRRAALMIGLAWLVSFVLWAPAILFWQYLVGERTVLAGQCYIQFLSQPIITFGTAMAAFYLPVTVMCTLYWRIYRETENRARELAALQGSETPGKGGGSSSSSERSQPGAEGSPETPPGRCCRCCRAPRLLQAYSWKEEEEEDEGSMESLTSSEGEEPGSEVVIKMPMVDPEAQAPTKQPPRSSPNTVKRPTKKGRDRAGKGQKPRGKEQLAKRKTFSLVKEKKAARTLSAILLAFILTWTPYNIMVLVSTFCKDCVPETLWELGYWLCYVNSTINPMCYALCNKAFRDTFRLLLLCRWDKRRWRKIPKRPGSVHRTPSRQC
Protocol: as §1, §2, §3, §4, §5

[5] = 100% = maximum response obtained with the Carbachol control, read-out: M2 Efficacy
[6] = 100% = maximum response obtained with the Carbachol control, read-out: M4 Efficacy
[7] = 100% = maximum response obtained with the Carbachol control, read-out: M3 Efficacy
[8] = 100% = maximum response obtained with the Carbachol control, read-out: M1 Efficacy
[9] = 100% efficacy = maximum response obtained with the Carbachol control

| Compound | EC50 [1] [µM] | Emax [1, 5] [%] | EC50 [2] [µM] | Emax [2, 6] [%] | EC50 [3] [µM] | Emax [3, 7] [%] | EC50 [4] [µM] | Emax [4, 8] [%] | M2 Activity [1] | Emax [1, 9] [%] | M4 Activity [2] | Emax [2, 9] [%] | M3 Activity ([3]; CHO cells expressing M3, FLIPR calcium assay) | Emax [3, 9] [%] | M1 Activity [4] | Emax [4, 9] [%] |
| --- | --- | --- | --- | --- | --- | --- | --- | --- | --- | --- | --- | --- | --- | --- | --- | --- |
| CCC(CC)N1CCC2(CC[C@H](NC(C)=O)c3ccccc32)CC1 [Compound No. 61, (S)N-(1′-(pentan-3-yl)-3,4-dihydro-2H-spiro[naphthalene-1,4′-piperidine]-4-yl)acetamide] | > 5 | < 25 | > 5 | 25 to 100 | > 5 | < 25 | > 5 | 25 to 100 |  |  |  |  |  |  |  |  |
| CC(=O)N[C@H]1CCC2(CCN(CC(=O)C(C)(C)C)CC2)c2ccccc21 [Compound No. 130, (S)-N-(1′-(3,3-dimethyl-2-oxobutyl)-3,4-dihydro-2H-spiro[naphthalene-1,4′-piperidine]-4-yl)acetamide] | > 5 | < 25 | < 2 | 25 to 100 | > 5 | < 25 | 2 to 5 | 25 to 100 |  |  |  |  |  |  |  |  |
| CC(=O)N[C@H]1CCC2(CCN(CCC(C)(C)C)CC2)c2ccccc21 [Compound No. 190, (S)-N-(1′-(3,3-dimethylbutyl)-3,4-dihydro-2H -spiro[naphthalene-1,4′-piperidine]-4-yl)acetamide] |  |  |  |  |  |  |  |  | +++ (activity was measured to be less than 2.0 μM) | 25 to 100 | +++ (activity was measured to be less than 2.0 μM) | 25 to 100 | + (activity was measured to be greater than 5.0 μM) | < 25 | +++ (activity was measured to be less than 2.0 μM) | 25 to 100 |
| CC(C)(C)CCN1CCC2(CC[C@H](NS(C)(=O)=O)c3ccccc32)CC1 [compound 1] | 2 to 5 | < 25 | < 2 | 25 to 100 | > 5 | < 25 | < 2 | 25 to 100 |  |  |  |  |  |  |  |  |
| Cc1cc(C(=O)N[C@H]2CCC3(CCN(CCC(C)(C)C)CC3)c3cc(F)ccc32)nn1C [compound 2] | < 2 | 25 to 100 | < 2 | 25 to 100 | > 5 | < 25 | < 2 | 25 to 100 |  |  |  |  |  |  |  |  |
| CC(C)(C)CCN1CCC2(CC[C@@H](NC(=O)C3CC3)c3ccccc32)CC1 [compound 3] | > 5 | < 25 | < 2 | 25 to 100 | > 5 | < 25 | > 5 | < 25 |  |  |  |  |  |  |  |  |
| CCCCN1CCC2(CC[C@H](NC(C)=O)c3ccccc32)CC1 [compound 4] | > 5 | < 25 | 2 to 5 | 25 to 100 | > 5 | < 25 | 2 to 5 | 25 to 100 |  |  |  |  |  |  |  |  |
| CCC(=O)N1CCCCC1C(=O)N[C@@H]1CCC2(CCN(CCC(C)(C)C)CC2)c2ccccc21 (stereo partly shown) [compound 5] | 2 to 5 | < 25 | < 2 | 25 to 100 | > 5 | < 25 | 2 to 5 | < 25 |  |  |  |  |  |  |  |  |
| CC(C)(C)CCN1CCC2(CC[C@@H](N3CCCCC3=O)c3ccc(F)cc32)CC1 [compound 6] | > 5 | < 25 | < 2 | 25 to 100 | > 5 | < 25 | > 5 | < 25 |  |  |  |  |  |  |  |  |
| CCN(C(=O)CC1CCCC1=O)[C@H]1CCC2(CCN(CCC(C)(C)C)CC2)c2ccccc21 (stereo partly shown) [compound 7] | > 5 | < 25 | < 2 | 25 to 100 | > 5 | < 25 | 2 to 5 | 25 to 100 |  |  |  |  |  |  |  |  |
| CC(=O)NCCC(=O)N[C@@H]1CCC2(CCN(CCC(C)(C)C)CC2)c2ccccc21 [compound 8] | 2 to 5 | < 25 | < 2 | 25 to 100 | > 5 | < 25 | < 2 | 25 to 100 |  |  |  |  |  |  |  |  |
| C[C@H](N[C@H]1CC2(CCN(C(=O)OC(C)(C)C)CC2)c2ccccc21)c1ccccc1 [compound 275] |  |  |  |  |  |  |  |  | + (activity was measured to be greater than 5.0 μM) | < 25 | + (activity was measured to be greater than 5.0 μM) | < 25 |  |  | + (activity was measured to be greater than 5.0 μM) | < 25 |
